Laboratory results as given in patent US20130065818A1, “Arylamide Compounds And Compositions And Uses Thereof” (POLYMEDIX, priority 2006, published 2013).
In brackets after ≈: the same amount, converted by molar mass. Where two headings read alike, the source gives them in different places.

Tested on: S. aureus ATCC 27660
Test: MIC, control bacteria (Example 8)
Format: cell-based
Protocol: • Mueller-Hinton Broth in tubes was inoculated with 25 ocular isolates of Staphylococcus aureus fluoroquinolone-susceptible, Staphylococcus aureus fluoroquinolone-resistant, Staphylococcus epidermidis (Coagulase-negative Staphylococcus) fluoroquinolone-susceptible, Staphylococcus epidermidis (Coagulase-negative Staphylococcus) fluoroquinolone-resistant, Pseudomonas aeruginosa and Serratia marcescens, plus two controls (Staphylococcus aureus and E. coli) and incubated at 37° C. overnight on a shaker set at 250 rpm.
Control Bacteria—The two control bacteria (Staphylococcus aureus and E. coli) were treated as above.
Control Bacteria Set #1—this set of control bacteria were treated as the Streptococcus pneumoniae, Streptococcus viridans and Moraxella species (including Moraxella catarrhalis) test isolates above; the control bacteria underwent the same conditions as the test Streptococcus pneumoniae, Streptococcus viridans and Moraxella species (including Moraxella catarrhalis) isolates. This set of control bacteria was to determine whether there was a difference in the MICs by performing the MIC determinations in 2% lysed horse red blood cells with the standard method performed in Mueller-Hinton broth.
Control Bacteria Set #2—the control bacteria were added to 5 ml of Mueller-Hinton Broth without the 2% lysed horse red blood cells to achieve the standard inoculum concentration. This set of control bacteria is the normal control to determine whether the compounds are at the target MICs.
Control Bacteria Set #1—this set of control bacteria were treated as the Haemophilus influenzae test isolates above; the control bacteria underwent the same conditions as the test Haemophilus influenzae isolates. This set of control bacteria is to determine whether there was a difference in the MICs by performing the MIC determinations in HTM broth with the standard method performed in Mueller-Hinton broth.
Control Bacteria Set #2—the control bacteria were added to 5 ml of Mueller-Hinton Broth to achieve the standard inoculum concentration. This set of control bacteria is the normal control to determine whether the compounds are at the target MICs.
Ninety μl of the bacterial suspensions was dispensed in each well from column 1 to column 12. Each bacterial isolate was placed in one row of a 96 well polypropylene plate containing the test agents. The plates were placed on shaker at 15 minutes at room temperature, and then incubated at 37° C. overnight. MICs were determined visually as the lowest concentration of drug that inhibits visible bacterial growth.

[1] = Control Bacteria S. aureus ATCC 27660

Structure (SMILES): N=C(N)NCCCCC(=O)Nc1cc(C(F)(F)F)cc(NC(=O)c2cnc(C(=O)Nc3cc(C(F)(F)F)cc(NC(=O)CCCCNC(=N)N)c3SCCN)cn2)c1SCCN [Oligomer 5]
- Decrease of activity by addition of 2% lysed horse red blood cells to Mueller-Hinton broth [1]: increase or have no effect
- Decrease of activity by use of HTM broth [1]: approximately 8 fold
- MIC (Control Bacteria Set #1, run with Haemophilus influenzae MIC test, read-out: MIC): 4 µg/mL (≈ 4.36 µM)
- MIC (S. aureus ATCC 27660): 0.78 µg/mL (≈ 0.851 µM)
- MIC (S. aureus ATCC 27660, Control for MIC Test SA-FQR, first batch): 8 µg/mL (≈ 8.72 µM)
- MIC (S. aureus ATCC 27660, Control for MIC Test SA-FQS, first batch): 16 µg/mL (≈ 17.4 µM)
- MIC (S. aureus ATCC 27660, new batches, Control Only 1): 0.25 µg/mL (≈ 0.273 µM)
- MIC (S. aureus ATCC 27660, new batches, Control Only 2): 0.25 µg/mL (≈ 0.273 µM)
- MIC (S. aureus ATCC 27660, new batches, Control Only 3): 0.5 µg/mL (≈ 0.545 µM)
- MIC (S. aureus ATCC 27660, new batches, Control Only 4): 0.5 µg/mL (≈ 0.545 µM)
- MIC (Staphylococcus aureus, ATCC27660, Control Bacteria Set #1, run with Moraxella MIC test, read-out: MIC): 1 µg/mL (≈ 1.09 µM)
- MIC (Staphylococcus aureus, ATCC27660, Control Only 1, read-out: MIC of control bacteria on day of MIC testing): 0.25 µg/mL
- MIC (Staphylococcus aureus, ATCC27660, Control Only 2, read-out: MIC of control bacteria on day of MIC testing): 0.25 µg/mL
- MIC (Staphylococcus aureus, ATCC27660, Control Only 3, read-out: MIC of control bacteria on day of MIC testing): 0.5 µg/mL
- MIC (Staphylococcus aureus, ATCC27660, Control Only 4, read-out: MIC of control bacteria on day of MIC testing): 0.5 µg/mL
- MIC (Staphylococcus aureus, ATCC27660, S. aureus ATCC 27660, Control Bacteria Set #1 (same conditions as test isolates), run with Streptococcus pneumoniae MIC test, read-out: MIC): 1 µg/mL (≈ 1.09 µM)
- MIC (Staphylococcus aureus, ATCC27660, S. aureus ATCC 27660, Control Bacteria Set #1 (same conditions as test isolates), run with Streptococcus viridans group MIC test, read-out: MIC): 1 µg/mL (≈ 1.09 µM)
- MIC (Staphylococcus aureus, ATCC27660, S. aureus ATCC 27660, Control Bacteria Set #2 (Mueller-Hinton Broth), run with Streptococcus pneumoniae MIC test, read-out: MIC): 2 µg/mL (≈ 2.18 µM)
- MIC (Staphylococcus aureus, ATCC27660, S. aureus ATCC 27660, Control Bacteria Set #2 (Mueller-Hinton Broth), run with Streptococcus viridans group MIC test, read-out: MIC): 1 µg/mL (≈ 1.09 µM)
- MIC (Staphylococcus aureus, ATCC27660, S. aureus ATCC 27660, control bacteria run with Pseudomonas aeruginosa MIC test, read-out: MIC): 0.25 µg/mL (≈ 0.273 µM)
- MIC (Staphylococcus aureus, ATCC27660, S. aureus ATCC 27660, control bacteria run with S. aureus fluoroquinolone-resistant MIC test, read-out: MIC): 8 µg/mL (≈ 8.72 µM)
- MIC (Staphylococcus aureus, ATCC27660, S. aureus ATCC 27660, control bacteria run with S. aureus fluoroquinolone-susceptible MIC test, read-out: MIC): 16 µg/mL (≈ 17.4 µM)
- MIC (Staphylococcus aureus, ATCC27660, S. aureus ATCC 27660, control bacteria run with S. epidermidis fluoroquinolone-resistant MIC test, read-out: MIC): 0.25 µg/mL (≈ 0.273 µM)
- MIC (Staphylococcus aureus, ATCC27660, S. aureus ATCC 27660, control bacteria run with S. epidermidis fluoroquinolone-susceptible MIC test, read-out: MIC): 0.25 µg/mL (≈ 0.273 µM)
- MIC (Staphylococcus aureus, ATCC27660, S. aureus ATCC 27660, control bacteria run with Serratia marcescens MIC test, read-out: MIC): 0.5 µg/mL (≈ 0.545 µM)
- MIC (Staphylococcus aureus, ATCC27660, S. aureus ATCC 27660, MIC previously obtained (target MIC), printed in parentheses, read-out: MIC for Control Bacteria within the parentheses): 0.78 µg/mL (≈ 0.851 µM)
- MIC (Staphylococcus aureus, ATCC27660, S. aureus ATCC27660, read-out: MIC): 0.78 µg/mL (≈ 0.851 µM)
- MIC (Staphylococcus aureus, ATCC27660, control for MIC test HI (Control Bacteria Set #2), read-out: MIC of control bacteria on day of MIC testing): 0.5 µg/mL
- MIC (Staphylococcus aureus, ATCC27660, control for MIC test MS (Control Bacteria Set #2), read-out: MIC of control bacteria on day of MIC testing): 0.5 µg/mL
- MIC (Staphylococcus aureus, ATCC27660, control for MIC test PA, read-out: MIC of control bacteria on day of MIC testing): 0.25 µg/mL
- MIC (Staphylococcus aureus, ATCC27660, control for MIC test SA-FQR, read-out: MIC of control bacteria on day of MIC testing): 8 µg/mL
- MIC (Staphylococcus aureus, ATCC27660, control for MIC test SA-FQS, read-out: MIC of control bacteria on day of MIC testing): 16 µg/mL
- MIC (Staphylococcus aureus, ATCC27660, control for MIC test SE-FQR, read-out: MIC of control bacteria on day of MIC testing): 0.25 µg/mL
- MIC (Staphylococcus aureus, ATCC27660, control for MIC test SE-FQS, read-out: MIC of control bacteria on day of MIC testing): 0.25 µg/mL
- MIC (Staphylococcus aureus, ATCC27660, control for MIC test SM, read-out: MIC of control bacteria on day of MIC testing): 0.5 µg/mL
- MIC (Staphylococcus aureus, ATCC27660, control for MIC test SP, read-out: MIC of control bacteria on day of MIC testing): 2 µg/mL
- MIC (Staphylococcus aureus, ATCC27660, control for MIC test SV, read-out: MIC of control bacteria on day of MIC testing): 1 µg/mL
- MIC (Staphylococcus aureus, ATCC27660, reference MIC printed in parentheses beside the day's control value, read-out: MIC for Control Bacteria (within the parentheses)): 0.78 µg/mL (≈ 0.851 µM)
